Test results from ChEMBL document CHEMBL1201862, “PubChem BioAssay data set” (2004).
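Five compound concentrations were applied to cells in 96-well plates for 48 hours; endpoints were derived by simple linear interpolation of the resulting dose-response curve. Here, GI50 denotes the concentration required for 50% inhibition of growth.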 Activity calls are given as the source filed them. Cut-off read from the data, not from the text of the source: active = GI50 up to about 1.1 µM and inactive = higher.

Legend:
Assay in all cases: inhibition of tumour cell growth, NCI panel, 48 h
SN12C = tested on: SN12C
RPMI-8226 = tested on: RPMI-8226
KM12 = tested on: KM12
MCF7 = tested on: MCF7
COLO 205 = tested on: COLO 205
TK-10 = tested on: TK-10
SK-MEL-5 = tested on: SK-MEL-5
RXF 393 = tested on: RXF 393
Hs-578T = tested on: Hs-578T
HOP-62 = tested on: HOP-62
SR = tested on: SR
HCC 2998 = tested on: HCC 2998
SNB-75 = tested on: SNB-75
MDA-N = tested on: MDA-N
SK-MEL-2 = tested on: SK-MEL-2
MOLT-4 = tested on: MOLT-4
OVCAR-3 = tested on: OVCAR-3
LOX IMVI = tested on: LOX IMVI
BT-549 = tested on: BT-549
Malme-3M = tested on: Malme-3M

Structure (SMILES) | GI50 (SN12C) | GI50 (RPMI-8226) | GI50 (KM12) | GI50 (MCF7) | GI50 (COLO 205) | GI50 (TK-10) | GI50 (SK-MEL-5) | GI50 (RXF 393) | GI50 (Hs-578T) | GI50 (HOP-62) | GI50 (SR) | GI50 (HCC 2998) | GI50 (SNB-75) | GI50 (MDA-N) | GI50 (SK-MEL-2) | GI50 (MOLT-4) | GI50 (OVCAR-3) | GI50 (LOX IMVI) | GI50 (BT-549) | GI50 (Malme-3M)
COC(=O)C(CCC1C=CCC1)/N=C\c1ccccc1 (configuration not stated) | 60.4 µM (inactive) | 24.5 µM (inactive) | 45 µM (inactive) | 46.8 µM (inactive) | 48.8 µM (inactive) | 99.1 µM (inactive) | 32.1 µM (inactive) | 58.5 µM (inactive) | > 100 µM (inactive) | 68.5 µM (inactive) | 38.3 µM (inactive) | 86.3 µM (inactive) | 93.3 µM (inactive) | 49.9 µM (inactive) | 37.5 µM (inactive) | 33.8 µM (inactive) | 66.5 µM (inactive) | 76.7 µM (inactive) | 78.5 µM (inactive) | –
CCCCCCCCCCCCCCC(C(=O)[O-])[n+]1ccccc1 (configuration not stated) | 23.4 µM (inactive) | > 100 µM (inactive) | > 100 µM (inactive) | 16.1 µM (inactive) | > 100 µM (inactive) | 15.1 µM (inactive) | > 100 µM (inactive) | 20.4 µM (inactive) | > 100 µM (inactive) | > 100 µM (inactive) | > 100 µM (inactive) | 97.3 µM (inactive) | > 100 µM (inactive) | > 100 µM (inactive) | > 100 µM (inactive) | > 100 µM (inactive) | > 100 µM (inactive) | > 100 µM (inactive) | > 100 µM (inactive) | –
Cc1ncc2c(=O)c3c(oc2n1)c1ccccc1n3Cc1ccccc1 | > 100 µM (inactive) | > 100 µM (inactive) | > 100 µM (inactive) | > 100 µM (inactive) | > 100 µM (inactive) | > 100 µM (inactive) | > 100 µM (inactive) | > 100 µM (inactive) | > 100 µM (inactive) | 27.4 µM (inactive) | > 100 µM (inactive) | > 100 µM (inactive) | 29.5 µM (inactive) | > 100 µM (inactive) | – | > 100 µM (inactive) | > 100 µM (inactive) | > 100 µM (inactive) | > 100 µM (inactive) | > 100 µM (inactive)
CSc1ncc2c(C#N)c3ccccn3c(=O)c2n1 | > 100 µM (inactive) | > 100 µM (inactive) | > 100 µM (inactive) | > 100 µM (inactive) | > 100 µM (inactive) | > 100 µM (inactive) | > 100 µM (inactive) | > 100 µM (inactive) | > 100 µM (inactive) | > 100 µM (inactive) | > 100 µM (inactive) | > 100 µM (inactive) | > 100 µM (inactive) | > 100 µM (inactive) | > 100 µM (inactive) | > 100 µM (inactive) | > 100 µM (inactive) | > 100 µM (inactive) | > 100 µM (inactive) | > 100 µM (inactive)
O=C(O)c1ccc2c(c1)CC1(C2)Cc2ccccc2C1=O (configuration not stated) | > 100 µM (inactive) | > 100 µM (inactive) | > 100 µM (inactive) | > 100 µM (inactive) | > 100 µM (inactive) | > 100 µM (inactive) | > 100 µM (inactive) | > 100 µM (inactive) | > 100 µM (inactive) | > 100 µM (inactive) | > 100 µM (inactive) | > 100 µM (inactive) | > 100 µM (inactive) | > 100 µM (inactive) | > 100 µM (inactive) | > 100 µM (inactive) | > 100 µM (inactive) | > 100 µM (inactive) | > 100 µM (inactive) | > 100 µM (inactive)
CN(/N=C(\C(=O)O)c1ccccc1)C1=NCCCN1 | > 100 µM (inactive) | > 100 µM (inactive) | > 100 µM (inactive) | > 100 µM (inactive) | > 100 µM (inactive) | > 100 µM (inactive) | > 100 µM (inactive) | > 100 µM (inactive) | > 100 µM (inactive) | > 100 µM (inactive) | > 100 µM (inactive) | > 100 µM (inactive) | > 100 µM (inactive) | > 100 µM (inactive) | > 100 µM (inactive) | > 100 µM (inactive) | > 100 µM (inactive) | > 100 µM (inactive) | > 100 µM (inactive) | > 100 µM (inactive)
CCN(CC)CCCNc1nnc(C)c2[nH]c3ccccc3c12 | 12.7 µM (inactive) | 23.5 µM (inactive) | 11.4 µM (inactive) | 3.61 µM (inactive) | 2.7 µM (inactive) | 20.2 µM (inactive) | 14.6 µM (inactive) | 17.7 µM (inactive) | 15.4 µM (inactive) | 7.31 µM (inactive) | 7.13 µM (inactive) | 9.95 µM (inactive) | 18.3 µM (inactive) | 13.7 µM (inactive) | 15.2 µM (inactive) | 4.1 µM (inactive) | 11.7 µM (inactive) | 7.46 µM (inactive) | 21.6 µM (inactive) | 15.1 µM (inactive)
OCC1OC(n2cnc3c2NC=NC[C@H]3O)CC1O (some centres not stated) | 483 µM (inactive) | 478 µM (inactive) | 495 µM (inactive) | 441 µM (inactive) | 472 µM (inactive) | > 500 µM (inactive) | 483 µM (inactive) | 484 µM (inactive) | > 500 µM (inactive) | 417 µM (inactive) | 359 µM (inactive) | 387 µM (inactive) | 337 µM (inactive) | > 500 µM (inactive) | 497 µM (inactive) | 418 µM (inactive) | 497 µM (inactive) | 463 µM (inactive) | > 500 µM (inactive) | 458 µM (inactive)
COc1cccc2c1C(=O)c1c(O)c3c(c(O)c1C2=O)C[C@@](O)(C(=O)CO)C[C@@H]3OC1CC(N2CCOCC2C#N)C(O)C(C)O1 (some centres not stated) | 2.14e-05 µM (active) | 3.01e-05 µM (active) | 2.55e-05 µM (active) | 0.0025 µM (active) | 0.000136 µM (active) | 0.000149 µM (active) | 3.72e-05 µM (active) | 1.91e-05 µM (active) | 5.73e-05 µM (active) | 2.32e-05 µM (active) | 1.27e-05 µM (active) | 5.37e-05 µM (active) | 1.37e-05 µM (active) | 9.08e-05 µM (active) | – | 1.83e-05 µM (active) | 2.27e-05 µM (active) | 0.0025 µM (active) | 5.39e-05 µM (active) | 0.0002 µM (active)
C=CC[C@]12C[C@@H](C(=O)OC)N(C(=O)OC)[C@H]1N(S(=O)(=O)c1ccccc1)c1ccccc12 | 89.7 µM (inactive) | 44.3 µM (inactive) | 85.5 µM (inactive) | 41.3 µM (inactive) | – | > 100 µM (inactive) | 58.5 µM (inactive) | 26 µM (inactive) | 42.9 µM (inactive) | > 100 µM (inactive) | 38.4 µM (inactive) | 44.2 µM (inactive) | 21.5 µM (inactive) | 41.8 µM (inactive) | 42.3 µM (inactive) | 33 µM (inactive) | 87.9 µM (inactive) | – | > 100 µM (inactive) | 91.8 µM (inactive)
Cc1c([N+](=O)[O-])oc2ccc3ccccc3c12 | 12.5 µM (inactive) | 9.33 µM (inactive) | 29.9 µM (inactive) | 10.3 µM (inactive) | 6.79 µM (inactive) | 37.8 µM (inactive) | 5.4 µM (inactive) | 21.4 µM (inactive) | > 100 µM (inactive) | > 100 µM (inactive) | 2.9 µM (inactive) | 25.1 µM (inactive) | 28.5 µM (inactive) | 26.9 µM (inactive) | > 100 µM (inactive) | 2.58 µM (inactive) | > 100 µM (inactive) | 18.5 µM (inactive) | > 100 µM (inactive) | –
Cc1ccc2nc(C(C)C)c(=O)[nH]c2c1 | > 100 µM (inactive) | > 100 µM (inactive) | 31.8 µM (inactive) | > 100 µM (inactive) | > 100 µM (inactive) | > 100 µM (inactive) | > 100 µM (inactive) | 93.1 µM (inactive) | 42.3 µM (inactive) | 17.2 µM (inactive) | > 100 µM (inactive) | > 100 µM (inactive) | 42.4 µM (inactive) | > 100 µM (inactive) | 15 µM (inactive) | > 100 µM (inactive) | 18.8 µM (inactive) | – | > 100 µM (inactive) | > 100 µM (inactive)
O=c1[nH]c(Cc2ccccc2)nc2c1sc1nc3ccccc3n12 | > 100 µM (inactive) | > 100 µM (inactive) | > 100 µM (inactive) | > 100 µM (inactive) | > 100 µM (inactive) | > 100 µM (inactive) | > 100 µM (inactive) | > 100 µM (inactive) | > 100 µM (inactive) | – | > 100 µM (inactive) | > 100 µM (inactive) | > 100 µM (inactive) | > 100 µM (inactive) | > 100 µM (inactive) | > 100 µM (inactive) | > 100 µM (inactive) | > 100 µM (inactive) | > 100 µM (inactive) | –
O=C(/C=C/c1ccsc1)c1ccco1 | 14.6 µM (inactive) | 3.52 µM (inactive) | 4.8 µM (inactive) | 2.21 µM (inactive) | 17.6 µM (inactive) | 20 µM (inactive) | 15.4 µM (inactive) | 13.3 µM (inactive) | 9.4 µM (inactive) | 14.9 µM (inactive) | 2.28 µM (inactive) | 12.2 µM (inactive) | 12.8 µM (inactive) | 12.1 µM (inactive) | 14.1 µM (inactive) | 4.34 µM (inactive) | 14 µM (inactive) | 3.1 µM (inactive) | 18.5 µM (inactive) | –
C/C(=N\NC(=S)N(C)C)c1nc2cccnc2[nH]1 | 1.16 µM (inactive) | 2.07 µM (inactive) | – | 1.05 µM (active) | 0.325 µM (active) | 2.1 µM (inactive) | 0.387 µM (active) | 0.596 µM (active) | 1.22 µM (inactive) | 0.54 µM (active) | 0.679 µM (active) | 0.71 µM (active) | 3.18 µM (inactive) | 1.27 µM (inactive) | 0.583 µM (active) | 0.406 µM (active) | – | 0.673 µM (active) | 0.0398 µM (active) | 1.38 µM (inactive)
